US12070458B2, “Therapeutic agent composition and method of use, for treatment of mild congnitive impairment, depression, and psychological disorders” (priority 2018, dated 2024)
Entries after “also recorded” stand apart in the source; their conditions may differ.

Test system: Alzheimer patients with mild cognitive impairment
Assay: Clinical trial on Alzheimer's patients with mild cognitive impairment
Assay type: in vivo, human
Settings: 10 mg orally once a day
Procedure: A randomized clinical trial of NA-831 (also known as cyclic Prolyl Glycine) was performed on Alzheimer patients with mild cognitive impairment of vascular origin. The drug NA-831 was administered orally with a one capsule of 10 mg once a day over a period of 12 weeks. There were 32 Alzheimer patients participated in the study.
• Is male or female, at 55-85 years of age (inclusive) at screening. • Self-reported memory complaint, corroborated by spouse or companion as appropriate. • Wechsler Memory Scale III (WMS-III) age-adjusted Logical Memory II score ≤5. • Mini-Mental State Exam (MMSE)≥24. • Center for Epidemiologic Studies-Depression (CES-D) score <27. • Normal thyroid function, defined as TSH, T3 and T4 within normal limits. • Agree not to consume alcoholic beverages within 8 hours of each study visit. • Willing and able to sign informed consent and complete the CTB and all other tests and procedures as listed in the protocol. • Female subjects must be surgically sterile or post-menopausal for at least 2 years. If <2 years post-menopausal, then a follicle stimulating hormone (FSH) ≥40 mIU/mL must be obtained. […] Assessment • 1) A scale assessing the severity of symptoms based on the Unified Assessment of Clinical-Pharmacological Actions of Psychotropic Agents in Patients with Organic Disorders, which provides objective quantitative data on the therapeutic dynamics of psychopathological symptomatology and the characteristics of the psychotropic actions of agents. • 2) The Mini Mental State Examination (MMSE), which consists of a battery of neuropsychological tests evaluating cognitive functions in points: attention, memory, gnosis, speech, praxis, and counting. • 3) The Brief Cognitive Rating Scale (BCRS), which provides assessment of the severities of the individual components of cognitive impairments. • 4) The Cognitive Capacity Screening Examination (CCSE), which consists of a battery of tests assessing cognitive functions: orientation, memory, counting, and the abilities to infer and to group objects. • 5) The Clinical Global Impression scale, which provides quantitative assessments of the therapeutic efficacies of agents, along with tolerance and safety, using investigations of measures of disease severity, the level of “overall improvement,” the therapeutic effect, and the presence and severity of side effects during treatment. • 6) Laboratory analyses consisting of general blood and urine tests, including biochemical investigations (AST, ALT). • 7) ECG traces. Results
The mental state of patients with mild cognitive impairment, such as but not limited to through vascular origin was defined by the assessment including the Mini Mental State Examination (MMSE), the Brief Cognitive Rating Scale (BCRS), the Cognitive Capacity Screening Examination (CCSE).
W is Wilcoxon signed-rank test, which is the nonparametric test equivalent to the dependent t-test. It is used to compare two sets of scores that come from the same participants. This can occur when we wish to investigate any change in scores from one time point to another, or when individuals are subjected to more than one condition.
Clinicians use used a Wilcoxon signed-rank test to understand whether there was a difference in the patient conditions in term of fatigue before and after a period the time with the drug treatment.
Analysis of the therapeutic efficacies of NA-831 were performed in all patients in the trial using the assessment methods including: the Mini Mental State Examination (MMSE), the Brief Cognitive Rating Scale (BCRS), and the Cognitive Capacity Screening Examination (CCSE).

## O=C1NCC(=O)N2CCC[C@@H]12 [cPG, cyclic Prolyl Glycine]
12 weeks
  long-term memory: improves
  orientation: improves
  patients with little improvement: 7.5%
  patients with marked improvement: 92.5%
  short-term memory: improves
Day 42 to day 84, p value of less than 0.01
  ability to concentrate and count (Brief Cognitive Rating Scale): improve
Listed as NA-831
  functions significantly improved with p<0.01: Reduce fatigue; also recorded: Reduce anxiety; also recorded: Reduce irritability; also recorded: Improve lability; also recorded: Reduce disturbance from waking up at night; also recorded: Reduce daytime drowsiness; also recorded: Improve duration of nocturnal sleep
Baseline vs day 7
  Affective Lability, W (Wilcoxon signed-rank test): 23
  Anxiety, W (Wilcoxon signed-rank test): 22
  Apathy indifference, W (Wilcoxon signed-rank test): 19
  Daytime drowsiness, W (Wilcoxon signed-rank test): 19
  Decreased mood, W (Wilcoxon signed-rank test): 3
  Disturbance to waking, W (Wilcoxon signed-rank test): 21
  Headache, W (Wilcoxon signed-rank test): 28
  Hyperesthesia, W (Wilcoxon signed-rank test): 11
  Impairments to the depth and duration of nocturnal sleep, W (Wilcoxon signed-rank test): 37
  Increased fatigue, W (Wilcoxon signed-rank test): 17
  Increased irritability, W (Wilcoxon signed-rank test): 38
  Orthostatic Impairment, W (Wilcoxon signed-rank test): 18
  Sleeping Disturbance, W (Wilcoxon signed-rank test): 37
  Sweating, W (Wilcoxon signed-rank test): 12
  Tachycardia, W (Wilcoxon signed-rank test): 29
Baseline vs day 14
  Affective Lability, W (Wilcoxon signed-rank test): 58
  Anxiety, W (Wilcoxon signed-rank test): 22
  Apathy indifference, W (Wilcoxon signed-rank test): 41
  Daytime drowsiness, W (Wilcoxon signed-rank test): 45
  Decreased mood, W (Wilcoxon signed-rank test): 12
  Disturbance to waking, W (Wilcoxon signed-rank test): 29
  Headache, W (Wilcoxon signed-rank test): 49
  Hyperesthesia, W (Wilcoxon signed-rank test): 21
  Impairments to the depth and duration of nocturnal sleep, W (Wilcoxon signed-rank test): 57
  Increased fatigue, W (Wilcoxon signed-rank test): 95
  Increased irritability, W (Wilcoxon signed-rank test): 47
  Orthostatic Impairment, W (Wilcoxon signed-rank test): 37
  Sleeping Disturbance, W (Wilcoxon signed-rank test): 47
  Sweating, W (Wilcoxon signed-rank test): 23
  Tachycardia, W (Wilcoxon signed-rank test): 28
Baseline vs day 21
  Affective Lability, W (Wilcoxon signed-rank test): 69
  Anxiety, W (Wilcoxon signed-rank test): 46
  Apathy indifference, W (Wilcoxon signed-rank test): 57
  Daytime drowsiness, W (Wilcoxon signed-rank test): 52
  Decreased mood, W (Wilcoxon signed-rank test): 22
  Disturbance to waking, W (Wilcoxon signed-rank test): 41
  Headache, W (Wilcoxon signed-rank test): 98
  Hyperesthesia, W (Wilcoxon signed-rank test): 33
  Impairments to the depth and duration of nocturnal sleep, W (Wilcoxon signed-rank test): 91
  Increased fatigue, W (Wilcoxon signed-rank test): 97
  Increased irritability, W (Wilcoxon signed-rank test): 68
  Orthostatic Impairment, W (Wilcoxon signed-rank test): 58
  Sleeping Disturbance, W (Wilcoxon signed-rank test): 70
  Sweating, W (Wilcoxon signed-rank test): 37
  Tachycardia, W (Wilcoxon signed-rank test): 35
Baseline vs day 28
  Affective Lability, W (Wilcoxon signed-rank test): 118
  Anxiety, W (Wilcoxon signed-rank test): 70
  Apathy indifference, W (Wilcoxon signed-rank test): 59
  Daytime drowsiness, W (Wilcoxon signed-rank test): 67
  Decreased mood, W (Wilcoxon signed-rank test): 23
  Disturbance to waking, W (Wilcoxon signed-rank test): 47
  Headache, W (Wilcoxon signed-rank test): 101
  Hyperesthesia, W (Wilcoxon signed-rank test): 67
  Impairments to the depth and duration of nocturnal sleep, W (Wilcoxon signed-rank test): 93
  Increased fatigue, W (Wilcoxon signed-rank test): 137
  Increased irritability, W (Wilcoxon signed-rank test): 93
  Orthostatic Impairment, W (Wilcoxon signed-rank test): 78
  Sleeping Disturbance, W (Wilcoxon signed-rank test): 70
  Sweating, W (Wilcoxon signed-rank test): 66
  Tachycardia, W (Wilcoxon signed-rank test): 45
Baseline vs day 42
  Affective Lability, W (Wilcoxon signed-rank test): 139
  Anxiety, W (Wilcoxon signed-rank test): 107
  Apathy indifference, W (Wilcoxon signed-rank test): 61
  Daytime drowsiness, W (Wilcoxon signed-rank test): 76
  Decreased mood, W (Wilcoxon signed-rank test): 23
  Disturbance to waking, W (Wilcoxon signed-rank test): 69
  Headache, W (Wilcoxon signed-rank test): 120
  Hyperesthesia, W (Wilcoxon signed-rank test): 69
  Impairments to the depth and duration of nocturnal sleep, W (Wilcoxon signed-rank test): 104
  Increased fatigue, W (Wilcoxon signed-rank test): 155
  Increased irritability, W (Wilcoxon signed-rank test): 109
  Orthostatic Impairment, W (Wilcoxon signed-rank test): 67
  Sleeping Disturbance, W (Wilcoxon signed-rank test): 82
  Sweating, W (Wilcoxon signed-rank test): 67
  Tachycardia, W (Wilcoxon signed-rank test): 53
Baseline vs day 56
  Affective Lability, W (Wilcoxon signed-rank test): 140
  Anxiety, W (Wilcoxon signed-rank test): 110
  Apathy indifference, W (Wilcoxon signed-rank test): 65
  Daytime drowsiness, W (Wilcoxon signed-rank test): 109
  Decreased mood, W (Wilcoxon signed-rank test): 23
  Disturbance to waking, W (Wilcoxon signed-rank test): 92
  Headache, W (Wilcoxon signed-rank test): 121
  Hyperesthesia, W (Wilcoxon signed-rank test): 78
  Impairments to the depth and duration of nocturnal sleep, W (Wilcoxon signed-rank test): 113
  Increased fatigue, W (Wilcoxon signed-rank test): 159
  Increased irritability, W (Wilcoxon signed-rank test): 110
  Orthostatic Impairment, W (Wilcoxon signed-rank test): 78
  Sleeping Disturbance, W (Wilcoxon signed-rank test): 82
  Sweating, W (Wilcoxon signed-rank test): 67
  Tachycardia, W (Wilcoxon signed-rank test): 67
Baseline vs day 70
  Affective Lability, W (Wilcoxon signed-rank test): 142
  Anxiety, W (Wilcoxon signed-rank test): 115
  Apathy indifference, W (Wilcoxon signed-rank test): 67
  Daytime drowsiness, W (Wilcoxon signed-rank test): 117
  Decreased mood, W (Wilcoxon signed-rank test): 24
  Disturbance to waking, W (Wilcoxon signed-rank test): 95
  Headache, W (Wilcoxon signed-rank test): 129
  Hyperesthesia, W (Wilcoxon signed-rank test): 83
  Impairments to the depth and duration of nocturnal sleep, W (Wilcoxon signed-rank test): 118
  Increased fatigue, W (Wilcoxon signed-rank test): 162
  Increased irritability, W (Wilcoxon signed-rank test): 117
  Orthostatic Impairment, W (Wilcoxon signed-rank test): 81
  Sleeping Disturbance, W (Wilcoxon signed-rank test): 82
  Sweating, W (Wilcoxon signed-rank test): 69
  Tachycardia, W (Wilcoxon signed-rank test): 69
Day 84, average 23.5 on day 1
  MMSE, average: 29.75
